Reference: patent publication US20140100156A1 (SANOFI, priority 2012, published 2014)

Tests used:
Type in all cases: in vivo
[1] = system: female diet-induced obese (DIO) C57BL/6NCrl mice; experiment: Acute effect on blood glucose in fed female diet-induced obese (DIO) C57BL/6NCrl mice
Description: (§1) Female C57BL/6NCrl mice were housed in groups in a specific pathogen-free barrier facility on a 12-h light/dark cycle with free access to water and high-fat diet. After 10 months on high-fat diet, mice were stratified to treatment groups (n=8), so that each group had similar mean body weight.
An aged-matched group with ad-libitum access to standard chow was included as standard control group.
Before the experiment, mice were subcutaneously (s.c.) injected with vehicle solution and weighed for 3 days to acclimate them to the procedures.
(§2) 1) Acute effect on blood glucose in fed DIO mice: initial blood samples were taken just before first administration (s.c.) of vehicle (phosphate buffer solution) or the exendin-4 derivatives at doses of 3, 10, and 100 μg/kg (dissolved in phosphate puffer), respectively. The volume of administration was 5 mL/kg. The animals had access to water and their corresponding diet during the experiment, food consumption was determined at all time points of blood sampling. Blood glucose levels were measured at t=0.5 h, t=1 h, t=2 h, t=4 h, t=6 h, t=8 h, and t=24 h (method: d-glucose hexokinase, hemolysate, AU640 Beckman Coulter). Blood sampling was performed by tail incision without anaesthesia.
(§3) Statistical analyses were performed with Everstat 6.0 by repeated measures two-way ANOVA and Dunnetts post-hoc analyses (glucose profile) and 1-way-ANOVA, followed by Dunnetts post-hoc test (body weight, body fat). Differences versus vehicle-treated DIO control mice were considered statistically significant at the p<0.05 level.
(§4) After blood sampling to determine the blood glucose baseline level, fed diet-induced obese female C57BL/6NCrI mice were administered 3, 10 or 100 μg/kg of SEQ ID NO: 97 or phosphate buffered solution (vehicle control on standard or high-fat diet) subcutaneously. At predefined time points, more blood samples were taken to measure blood glucose and generate the blood glucose profile over 24 h.

[2] = Subchronic effect on body weight and body fat in female DIO C57BL/6NCrl mice; conditions: 4 weeks, mean
Protocol: as §1
2) Subchronic effect on body weight: all animals were treated once daily s.c. in the morning, at the beginning of the light phase (12 h lights on) with either vehicle or exendin-4 derivatives at the abovementioned doses for 4 weeks. Body weight was recorded daily. On days 6 and 28, total fat mass was measured by nuclear magnetic resonance (NMR) using a Bruker minispec (Ettlingen, Germany).
as §3
Female obese C57BL/6NCrl mice were treated for 4 weeks once daily subcutaneously in the morning, at the beginning of the light phase (12 h lights on) with 3, 10 or 100 μg/kg SEQ ID NO: 97 or vehicle. Body weight was recorded daily, and body fat content was determined before the start of treatment and after 4 weeks of treatment.

[3] = system: female leptin-receptor deficient diabetic db/db mice; experiment: Acute effect on blood glucose in fed female db/db mice
Description: (§5) Female BKS.Cg-m+/+Leprdb/J (db/db) and BKS.Cg-m+/+Leprdb/+ (lean control) mice were obtained from Charles River Laboratories, Germany, at an age of 9-10 weeks. The animals were housed in groups in a specific pathogen-free barrier facility on a 12-h light/dark cycle with free access to water and rodent-standard chow. After 1 week of acclimatization, blood samples were drawn from the tail without anaesthesia and blood glucose (method: d-glucose hexokinase, hemolysate, AU640 Beckman Coulter) and HbA1c level (method: hemolysate, Cobas6000 c501, Roche Diagnostics, Germany) were determined.
Db/db mice were stratified to treatment groups (n=8), so that each group had similar baseline blood glucose and HbA1c levels.
as §2, with “db/db” for “DIO”, “or” for “or the”, “chow” for “their corresponding diet”, “h.” for “h (method: d-glucose hexokinase, hemolysate, AU640 Beckman Coulter).”
Statistical analyses were performed with Everstat 6.0 by repeated measures two-way ANOVA and Dunnetts post-hoc analyses. Differences versus vehicle-treated db/db control mice were considered statistically significant at the p<0.05 level.
as §4, with “diabetic” for “diet-induced obese”, “db/db” for “C57BL/6NCrI”, “(vehicle-treated db/db control)” for “(vehicle control on standard or high-fat diet)”, “h. […]” for “h.”

[4] = system: female leptin-receptor deficient diabetic db/db mice; experiment: Subchronic effect on blood glucose and HbA1c in female db/db mice
Description: as §5, with “determined. […]” for “determined.”
2) Subchronic effect on blood glucose and HbA1c: all animals were treated once daily s.c. with either vehicle or exendin-4 derivatives at the abovementioned doses for 4 weeks. At the end of the study, blood samples (tail, no anaesthesia) were analyzed for glucose and HbA1c. […]
Female diabetic mice were treated for 4 weeks once daily subcutaneously with 3, 10 or 100 μg/kg SEQ ID NO: 97 or vehicle. Blood glucose and HbA1c were determined before start of treatment and at the end of the study after 4 weeks of treatment.
Female diabetic mice were treated for 4 weeks subcutaneously with 50 μg/kg SEQ ID NO: 24 or vehicle twice daily. Blood glucose and HbA1c were determined before start of treatment and at the end of the study after 4 weeks of treatment.

SEQ ID NO: 97: exendin-4 derivative, K(γE-x53) in position 14 (HXQGTFTSDLSKQKDSRRAQDFIEWLKNGGPSSGAPPPS; K14 side chain γE-x53; Exendin-4-analogue)
duration of decrease in blood glucose compared to DIO control mice ([1]; high dose (100 μg/kg s.c.)): > 24 h | duration of decrease in blood glucose compared to DIO control mice ([1]; low dose (3 μg/kg s.c.)): at least 8 h | duration of decrease in blood glucose compared to DIO control mice ([1]; medium dose (10 μg/kg s.c.)): at least 8 h | Body fat change ([2]; 3 μg/kg s.c. once daily): -0.5 g | Overall weight change ([2]; 3 μg/kg s.c. once daily): -0.9 g | Body fat change ([2]; 10 μg/kg s.c. once daily): -2.5 g | Overall weight change ([2]; 10 μg/kg s.c. once daily): -3.0 g | Body fat change ([2]; 100 μg/kg s.c. once daily): -2.4 g | Overall weight change ([2]; 100 μg/kg s.c. once daily): -2.3 g | duration of decrease in blood glucose compared to db/db control mice ([3]; high dose (100 μg/kg s.c.)): > 24 h | duration of decrease in blood glucose compared to db/db control mice ([3]; low dose (3 μg/kg s.c.)): up to 8 h | duration of decrease in blood glucose compared to db/db control mice ([3]; medium dose (10 μg/kg s.c.)): up to 8 h | blood glucose level versus db control mice at the end of the study ([4]; 3, 10 or 100 μg/kg s.c. once daily, 4 weeks (all dose groups)): significant lower blood glucose level | HbA1c level versus db control mice at the end of the study ([4]; high dose (100 μg/kg s.c. once daily), 4 weeks): significant lower HbA1c level
